Reference: patent US20230286973A1, “PROTEIN SECRETION INHIBITORS” (KEZAR LIFE SCIENCES, priority 2020, published 2023)

Columns and labels:
[1] = tested on: PD1-ss+10aa/Gaussia Luciferase; test: Dox-Induced PD1-ss-Gluc Assay; format: cell-based; conditions: 24 hr Dox induction; 293FRT/TO cells; read-out: 24 hr Dox Inducible PD1ssGluc 293FRT/TO: Mean IC50
Summary of the method: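 Doxycycline-induced expression of a PD1-ss+10aa/Gaussia luciferase reporter is measured in stable Flp-In 293 T-REx cells. Compound dilutions containing doxycycline are added one day after plating and incubated at 37 °C, 5% CO2. Values for unassigned stereocentres refer to stereoisomer mixtures.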

[2] = tested on: TNFα-FL/Gaussia Luciferase; test: Dox Induced TNFα-FL-Gluc Assay; format: cell-based; conditions: for IC50: 24 hr Dox induction, 293FRT/TO cells, read-out: 24 hr Dox Inducible TNFaFLGluc 293FRT/TO: Mean IC50; for 24 hr Dox Inducible TNFaFLGluc 293FRT/TO: TNF/PD1: ratio of TNFaFLGluc IC50 to PD1ssGluc IC50
Summary of the method: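 Compound was added with doxycycline to cells plated a day earlier, incubating at 37° C under 5% CO2. The reporter line is 293 T-REx expressing a TNFα (1-233)–Gaussia luciferase fusion under tetracycline-regulated control.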

[3] = tested on: HER3-ss+4aa/Gaussia Luciferase; test: Dox-Induced Her3-ss-Gluc Assay; format: cell-based; conditions: 24 hr Dox induction; 293FRT/TO cells; read-out: 24 hr Dox Inducible Her3(ss + 4)Gluc 293FRT/TO: Mean IC50
Summary of the method: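 Compounds were diluted in DMSO/media containing doxycycline. They were added to Flp-In 293 T-REx cells plated the previous day, then incubated at 37 °C under 5% CO2. These cells stably express, under T-REx control, Gaussia luciferase fused to the HER3 signal sequence plus 4 amino acids.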

[4] = tested on: IL-2-FL/Gaussia Luciferase; test: Dox Induced IL2-FL-Gluc Assay; format: cell-based; conditions: for IC50: 24 hr Dox induction, 293FRT/TO cells, read-out: 24 hr Dox Inducible IL2FLGluc 293FRT/TO: Mean IC50; for 24 hr Dox Inducible IL2FLGluc 293FRT/TO: IL2/PD1: ratio of IL2FLGluc IC50 to PD1ssGluc IC50
Summary of the method: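 Compounds in DMSO/medium with doxycycline were applied to a 293 T-REx stable line expressing an IL-2 (aa 1-153)–Gaussia luciferase fusion under tetracycline-regulated control, cells seeded one day earlier; incubation at 37 °C, 5% CO2. Structures drawn without stereochemistry were tested as stereoisomer mixtures.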

[5] = tested on: multiple myeloma cell line NCI-H929; test: H929 Cell Viability Assay; format: cell-based, human; conditions: Homo sapiens, NCI-H929, 48 h, NCI-H929 cells, Celltiter-Glo
Summary of the method: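 Luminescent CellTiter-Glo read-out of viability after a 48 h exposure (37° C, 5% CO2) of NCI-H929 myeloma cells to compound dilutions in RPMI 1640 plus 10% FBS. Data for structures drawn without stereochemistry refer to stereoisomer mixtures.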

[6] = tested on: multiple myeloma cell line U266B1; test: U266 Cell Viability Assay; format: cell-based, human; conditions: Homo sapiens, U-266, 48 h, U266B1 cells, Celltiter-Glo
Summary of the method: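 CellTiter-Glo luminescence was read after a 48 h compound exposure (37 °C, 5% CO2) of human U266B1 myeloma cells grown in 10% FBS-supplemented RPMI 1640. Data for structures shown without defined stereochemistry refer to stereoisomer mixtures.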

[7] = Liver Microsome Stability Assay (rat); conditions: rat liver microsomes, with NADPH, 1.0 uM compound
Protocol: (§1) Stability of a compound was assessed in the presence of liver microsomes from various sources—mouse, rat, monkey and human liver microsomes. 1.0 uM compound, 0.4% DMSO in 0.1 M Potassium Phosphate with 1.0 mg/mL liver microsomes, were incubated at 37° C. with or without 1 mM NADPH. The samples were quenched at 0, and 30 minutes.

[8] = Liver Microsome Stability Assay (mouse); conditions: mouse liver microsomes, with NADPH, 1.0 uM compound
Protocol: as §1

[9] = Liver Microsome Stability Assay (human); conditions: human liver microsomes, with NADPH, 1.0 uM compound
Protocol: as §1

[10] = Liver Microsome Stability Assay (monkey); conditions: monkey liver microsomes, with NADPH, 1.0 uM compound
Protocol: as §1

IC50 [1] [nM] | IC50 [2] [nM] | IC50 [3] [nM] | IC50 [4] [nM] | EC50 [5] [nM] | EC50 [6] [nM] | Liver Microsome Stability (Multiple Species): Rat - % Remaining after 30 min w/NADPH [7] [%] | Liver Microsome Stability (Multiple Species): Mouse - % Remaining after 30 min w/NADPH [8] [%] | Liver Microsome Stability (Multiple Species): Human - % Remaining after 30 min w/NADPH [9] [%] | Liver Microsome Stability (Multiple Species): Monkey - % Remaining after 30 min w/NADPH [10] [%] | Compound | 24 hr Dox Inducible TNFaFLGluc 293FRT/TO: TNF/PD1 [2] | 24 hr Dox Inducible IL2FLGluc 293FRT/TO: IL2/PD1 [4]
47.9 | 379 | 68.2 | 94.3 | 1270 | 12800 | 76.5 | 62.7 | 2.2 | 14.5 | NCCOc1ccc(N2CCC[C@@H]2c2csc(NC(=O)c3cccn3Cc3ccnc(F)c3)n2)cc1 [Compound A101, (R)-N-(4-(1-(4-(2-aminoethoxy)phenyl)pyrrolidin-2-yl)thiazol-2-yl)-1-((2-fluoropyridin-4-yl)methyl)-1H-pyrrole-2-carboxamide] | 7.92 | 2
296 | 8640 | 670 | 843 | 4040 | 5660 | 28.3 | 55 | 67 | 47.2 | CNCCOc1ccc(N2CCC[C@@H]2c2csc(NC(=O)c3cccn3Cc3ccnc(F)c3)n2)cc1 [Compound A103, (R)-1-((2-fluoropyridin-4-yl)methyl)-N-(4-(1-(4-(2-(methylamino)ethoxy)phenyl)pyrrolidin-2-yl)thiazol-2-yl)-1H-pyrrole-2-carboxamide] | 29.2 | 2.9
153 | 4030 | 355 | 435 | 3170 | 5760 | 27.9 | 16.5 | 68.8 | 51.6 | CN(C)CCOc1ccc(N2CCC[C@@H]2c2csc(NC(=O)c3cccn3Cc3ccnc(F)c3)n2)cc1 [Compound A104, (R)-N-(4-(1-(4-(2-(dimethylamino)ethoxy)phenyl)pyrrolidin-2-yl)thiazol-2-yl)-1-((2-fluoropyridin-4-yl)methyl)-1H-pyrrole-2-carboxamide] | 26.3 | 2.8

Continued, compound first:

Compound | IC50 [1] [nM] | IC50 [2] [nM] | IC50 [3] [nM] | IC50 [4] [nM] | EC50 [5] [nM] | EC50 [6] [nM] | Liver Microsome Stability (Multiple Species): Rat - % Remaining after 30 min w/NADPH [7] [%] | Liver Microsome Stability (Multiple Species): Mouse - % Remaining after 30 min w/NADPH [8] [%] | Liver Microsome Stability (Multiple Species): Human - % Remaining after 30 min w/NADPH [9] [%] | Liver Microsome Stability (Multiple Species): Monkey - % Remaining after 30 min w/NADPH [10] [%] | 24 hr Dox Inducible TNFaFLGluc 293FRT/TO: TNF/PD1 [2] | 24 hr Dox Inducible IL2FLGluc 293FRT/TO: IL2/PD1 [4]
CC(=O)Nc1c(F)cc(N2CCC[C@@H]2c2csc(NC(=O)c3cccn3Cc3ccnc(F)c3)n2)cc1F [Compound A99, (R)-N-(4-(1-(4-acetamido-3,5-difluorophenyl)pyrrolidin-2-yl)thiazol-2-yl)-1-((2-fluoropyridin-4-yl)methyl)-1H-pyrrole-2-carboxamide] | 127 | 5910 | 284 | 348 | 5300 | > 25000 | 0.49 | 1.28 | 1.85 | 0.12 | 46.7 | 2.8
CC(=O)N1CCC(Oc2ccc(N3CCC[C@@H]3c3csc(NC(=O)c4cccn4Cc4ccnc(F)c4)n3)c(F)c2)CC1 [Compound A100, (R)-N-(4-(1-(4-((1-acetylpiperidin-4-yl)oxy)-2-fluorophenyl)pyrrolidin-2-yl)thiazol-2-yl)-1-((2-fluoropyridin-4-yl)methyl)-1H-pyrrole-2-carboxamide] | 22.8 | 195 | 32 | 34.2 | 442 | > 25000 | 14.8 | 3.12 | 3.16 | 0.24 | 8.57 | 1.5
CC(=O)N1CCC(Oc2ccc(N3CCC[C@@H]3c3csc(NC(=O)c4cccn4Cc4ccnc(F)c4)n3)cc2F)CC1 [Compound A102, (R)-N-(4-(1-(4-((1-acetylpiperidin-4-yl)oxy)-3-fluorophenyl)pyrrolidin-2-yl)thiazol-2-yl)-1-((2-fluoropyridin-4-yl)methyl)-1H-pyrrole-2-carboxamide] | 15 | 121 | 16.9 | 27.5 | 317 | > 25000 | 19.7 | 7.68 | 8.26 | 1.22 | 8.11 | 1.8
CC(=O)N1CCC(Oc2cc(F)c(N3CCC[C@@H]3c3csc(NC(=O)c4cccn4Cc4ccnc(F)c4)n3)c(F)c2)CC1 [Compound A105, (R)-N-(4-(1-(4-((1-acetylpiperidin-4-yl)oxy)-2,6-difluorophenyl)pyrrolidin-2-yl)thiazol-2-yl)-1-((2-fluoropyridin-4-yl)methyl)-1H-pyrrole-2-carboxamide] | 53.6 | 524 | 91.7 | 65.8 | 1030 | > 25000 | 16.9 | 1.29 | 0.87 | 0.98 | 9.81 | 1.2
CC(=O)N1CCC(Oc2c(F)cc(N3CCC[C@@H]3c3csc(NC(=O)c4cccn4Cc4ccnc(F)c4)n3)cc2F)CC1 [Compound A106, (R)-N-(4-(1-(4-((1-acetylpiperidin-4-yl)oxy)-3,5-difluorophenyl)pyrrolidin-2-yl)thiazol-2-yl)-1-((2-fluoropyridin-4-yl)methyl)-1H-pyrrole-2-carboxamide] | 16.3 | 120 | 15.6 | 26.2 | 472 | > 25000 | 3.12 | 1.43 | 2.95 | 0.35 | 7.32 | 1.6
